# Laboratory results from PubChem BioAssay (NCI).
#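 Abbreviation: GI50, concentration required for 50% inhibition of growth. The concentration for full growth arrest is given as TGI.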
# Legend:
# Assay in all cases: DTP human tumour cell line panel, 384-well format
# KM12 colon = test system: KM12 colon
# PC-3 prostate = test system: PC-3 prostate
# NCI-H522 lung = test system: NCI-H522 lung
# SK-MEL-5 melanoma = test system: SK-MEL-5 melanoma
# BT-549 breast = test system: BT-549 breast
# SK-MEL-28 melanoma = test system: SK-MEL-28 melanoma
# MCF7 breast = test system: MCF7 breast
# UO-31 renal = test system: UO-31 renal
# MDA-MB-468 breast = test system: MDA-MB-468 breast
# K-562 leukemia = test system: K-562 leukemia
# RPMI-8226 leukemia = test system: RPMI-8226 leukemia
# 786-0 renal = test system: 786-0 renal
# SF-268 CNS = test system: SF-268 CNS
# NCI-H23 lung = test system: NCI-H23 lung
# HCT-15 colon = test system: HCT-15 colon
# A549 NSCLC = test system: A549 NSCLC
# SK-OV-3 ovarian = test system: SK-OV-3 ovarian
# U251 glioblastoma = test system: U251 glioblastoma
# UACC-62 melanoma = test system: UACC-62 melanoma
# MDA-MB-435 melanoma = test system: MDA-MB-435 melanoma
# SR leukemia = test system: SR leukemia
# CCRF-CEM leukemia = test system: CCRF-CEM leukemia
# SW-620 colon = test system: SW-620 colon
# HOP-62 NSCLC = test system: HOP-62 NSCLC
# NCI-H322M lung = test system: NCI-H322M lung
# MDA-MB-231 breast = test system: MDA-MB-231 breast
# MALME-3M melanoma = test system: MALME-3M melanoma
# HT29 colon = test system: HT29 colon
# NCI-H226 lung = test system: NCI-H226 lung
# HL-60(TB) leukemia = test system: HL-60(TB) leukemia
# SK-MEL-2 melanoma = test system: SK-MEL-2 melanoma
# LOX IMVI melanoma = test system: LOX IMVI melanoma
# MOLT-4 leukemia = test system: MOLT-4 leukemia
# DU-145 prostate = test system: DU-145 prostate
# M14 melanoma = test system: M14 melanoma
# NCI-H460 NSCLC = test system: NCI-H460 NSCLC
# SN12C renal = test system: SN12C renal
# SF-539 CNS = test system: SF-539 CNS
# COLO 205 colon = test system: COLO 205 colon
# A498 renal = test system: A498 renal
# HCC-2998 colon = test system: HCC-2998 colon
# RXF 393 renal = test system: RXF 393 renal
# OVCAR-5 ovarian = test system: OVCAR-5 ovarian
# CAKI-1 renal = test system: CAKI-1 renal
# TK-10 renal = test system: TK-10 renal
# SNB-19 CNS = test system: SNB-19 CNS
# SF-295 CNS = test system: SF-295 CNS
# IGROV1 ovarian = test system: IGROV1 ovarian
# ACHN renal = test system: ACHN renal
# T-47D breast = test system: T-47D breast
# OVCAR-3 ovarian = test system: OVCAR-3 ovarian
# NCI/ADR-RES ovarian = test system: NCI/ADR-RES ovarian
# HCT-116 colon = test system: HCT-116 colon
# UACC-257 melanoma = test system: UACC-257 melanoma
smiles,measurement,setting,value
COc1cc2nccc(Oc3ccc(NC(=O)c4cn(C(C)C)c(=O)n(-c5ccc(F)cc5)c4=O)cc3F)c2cc1OC,GI50,KM12 colon,0.0315 µM
same,TGI,KM12 colon,> 100 µM
same,GI50,PC-3 prostate,18.4 µM
same,TGI,PC-3 prostate,> 100 µM
same,GI50,NCI-H522 lung,1.65 µM
same,TGI,NCI-H522 lung,5.66 µM
same,GI50,SK-MEL-5 melanoma,4.94 µM
same,TGI,SK-MEL-5 melanoma,> 100 µM
same,GI50,BT-549 breast,5.27 µM
same,TGI,BT-549 breast,> 100 µM
same,GI50,SK-MEL-28 melanoma,2.97 µM
same,TGI,SK-MEL-28 melanoma,> 100 µM
same,GI50,MCF7 breast,7.28 µM
same,TGI,MCF7 breast,> 100 µM
same,GI50,UO-31 renal,0.246 µM
same,TGI,UO-31 renal,0.65 µM
same,GI50,MDA-MB-468 breast,6.91 µM
same,TGI,MDA-MB-468 breast,> 100 µM
same,GI50,K-562 leukemia,0.0235 µM
same,TGI,K-562 leukemia,0.137 µM
same,GI50,RPMI-8226 leukemia,3.95 µM
same,TGI,RPMI-8226 leukemia,> 100 µM
same,GI50,786-0 renal,18.9 µM
same,TGI,786-0 renal,> 100 µM
same,GI50,SF-268 CNS,3.37 µM
same,TGI,SF-268 CNS,> 100 µM
same,GI50,NCI-H23 lung,0.0469 µM
same,TGI,NCI-H23 lung,> 100 µM
same,GI50,HCT-15 colon,> 100 µM
same,TGI,HCT-15 colon,> 100 µM
same,GI50,A549 NSCLC,4.67 µM
same,TGI,A549 NSCLC,> 100 µM
same,GI50,SK-OV-3 ovarian,5.58 µM
same,TGI,SK-OV-3 ovarian,> 100 µM
same,GI50,U251 glioblastoma,> 100 µM
same,TGI,U251 glioblastoma,> 100 µM
same,GI50,UACC-62 melanoma,4.5 µM
same,TGI,UACC-62 melanoma,> 100 µM
same,GI50,MDA-MB-435 melanoma,> 100 µM
same,TGI,MDA-MB-435 melanoma,> 100 µM
same,GI50,SR leukemia,2.69 µM
same,TGI,SR leukemia,20.6 µM
same,GI50,CCRF-CEM leukemia,> 100 µM
same,TGI,CCRF-CEM leukemia,> 100 µM
same,GI50,SW-620 colon,9.13 µM
same,TGI,SW-620 colon,> 100 µM
same,GI50,HOP-62 NSCLC,15 µM
same,TGI,HOP-62 NSCLC,> 100 µM
same,GI50,NCI-H322M lung,> 100 µM
same,TGI,NCI-H322M lung,> 100 µM
same,GI50,MDA-MB-231 breast,3.06 µM
same,TGI,MDA-MB-231 breast,> 100 µM
same,GI50,MALME-3M melanoma,2.85 µM
same,TGI,MALME-3M melanoma,> 100 µM
same,GI50,HT29 colon,7.99 µM
same,TGI,HT29 colon,> 100 µM
same,GI50,NCI-H226 lung,3.81 µM
same,TGI,NCI-H226 lung,61.4 µM
same,GI50,HL-60(TB) leukemia,2.6 µM
same,TGI,HL-60(TB) leukemia,> 100 µM
same,GI50,SK-MEL-2 melanoma,2.29 µM
same,TGI,SK-MEL-2 melanoma,9.87 µM
same,GI50,LOX IMVI melanoma,> 100 µM
same,TGI,LOX IMVI melanoma,> 100 µM
same,GI50,MOLT-4 leukemia,0.407 µM
same,TGI,MOLT-4 leukemia,4.2 µM
same,GI50,DU-145 prostate,> 100 µM
same,TGI,DU-145 prostate,> 100 µM
same,GI50,M14 melanoma,82.6 µM
same,TGI,M14 melanoma,> 100 µM
same,GI50,NCI-H460 NSCLC,4.01 µM
same,TGI,NCI-H460 NSCLC,> 100 µM
same,GI50,SN12C renal,0.642 µM
same,TGI,SN12C renal,> 100 µM
same,GI50,SF-539 CNS,1.3 µM
same,TGI,SF-539 CNS,2.85 µM
same,GI50,COLO 205 colon,> 100 µM
same,TGI,COLO 205 colon,> 100 µM
same,GI50,A498 renal,3.41 µM
same,TGI,A498 renal,> 100 µM
same,GI50,HCC-2998 colon,> 100 µM
same,TGI,HCC-2998 colon,> 100 µM
same,GI50,RXF 393 renal,0.63 µM
same,TGI,RXF 393 renal,4.89 µM
same,GI50,OVCAR-5 ovarian,> 100 µM
same,TGI,OVCAR-5 ovarian,> 100 µM
same,GI50,CAKI-1 renal,1.46 µM
same,TGI,CAKI-1 renal,2.81 µM
same,GI50,TK-10 renal,96.6 µM
same,TGI,TK-10 renal,> 100 µM
same,GI50,SNB-19 CNS,> 100 µM
same,TGI,SNB-19 CNS,> 100 µM
same,GI50,SF-295 CNS,0.271 µM
same,TGI,SF-295 CNS,> 100 µM
same,GI50,IGROV1 ovarian,5.5 µM
same,TGI,IGROV1 ovarian,> 100 µM
same,GI50,ACHN renal,1.75 µM
same,TGI,ACHN renal,5.13 µM
same,GI50,T-47D breast,1.5 µM
same,TGI,T-47D breast,6.25 µM
same,GI50,OVCAR-3 ovarian,> 100 µM
same,TGI,OVCAR-3 ovarian,> 100 µM
same,GI50,NCI/ADR-RES ovarian,> 100 µM
same,TGI,NCI/ADR-RES ovarian,> 100 µM
same,GI50,HCT-116 colon,5.93 µM
same,TGI,HCT-116 colon,> 100 µM
same,GI50,UACC-257 melanoma,2.33 µM
same,TGI,UACC-257 melanoma,8.74 µM
